Results on 6 compounds are retold here after PMC7893776, “Selecting an anti-malarial clinical candidate from two potent dihydroisoquinolones” (Malaria Journal, 2021).

Broadly, the inhibition is the change of the read-out against control, counted positive when it falls. A low value points to little suppression.

Common to all, as to type: in vitro ADME
A short description of series [1]: Microsomal stability, mouse. The following applies: for CLint in vivo: scaled up using PBSF. Here is the method: (§1) The metabolic stability assay was performed by incubating compounds individually (0.8, 4, or 20 µM) with mouse, rat, dog and human liver microsomes (Fisher, 0.5 mg/mL protein concentration) at 37 °C. The metabolic reaction was initiated by the addition of a NADPH-regenerating system and quenched at various time points by the addition of acetonitrile according to a published method.
(§2) The remaining concentration of each compound was measured as a ratio of peak area to the internal standard. The log peak area ratio was plotted vs. time (h), and the slope was determined to calculate the elimination rate constant [k = (− 2.303) * slope]. If deviation from first order kinetics was evident, only the initial linear portion of the plot was used to determine the rate constate, k. The half-life (h) was calculated as t1/2 = 0.693/k. Intrinsic clearance in vitro was calculated as CLintin vitro = (1000)*(0.693/t1/2*60)/0.5, where microsomal concentration in the reaction solution was 0.5 mg/mL; 1000 and 60 are scaling factors for volume (µL) and time (min), respectively. The intrinsic in vitro clearance was scaled to the intrinsic in vivo clearance using physiology based scaling factor (PBSF): CLint in vivo= CLint in vitro *PBSF: (microsome protein/gram liver) * (gram liver/kg b.w.), with PBSF: 47 (mouse), 47(rat), 58 (dog), 32 (human); and liver weight proportions: 54.9 (mouse), 36.6 (rat), 32.9 (dog) 25.7 (human).

Series [2] has as its target T1, CYP2D6 (Homo sapiens, UniProt P10635).
T1 construct: purchased Cypex Ltd (Bactosomes)
Put plainly: CYP450 inhibition, CYP2D6. The following applies: for inhibition of CYP2D6: 10 µM, probe substrate Bufuralol, replicate measurements.

Series [3] concerns the target T2, CYP2C19 (Homo sapiens, UniProt P33261).
T2 construct: purchased Cypex Ltd (Bactosomes)
Put plainly: CYP450 inhibition, CYP2C19. The conditions noted are these: for inhibition of CYP2C19: 10 µM, probe substrate S-mephenytoin, replicate measurements.

The nature of series [4]: Microsomal stability, human. The conditions noted are these: for CLint in vivo: scaled up using PBSF. Here is the method: as §1, §2
Series [5] deals with T3, CYP1A2 (Homo sapiens, UniProt P05177).
T3 construct: purchased Cypex Ltd (Bactosomes)
T3 sequence (P05177 1-516): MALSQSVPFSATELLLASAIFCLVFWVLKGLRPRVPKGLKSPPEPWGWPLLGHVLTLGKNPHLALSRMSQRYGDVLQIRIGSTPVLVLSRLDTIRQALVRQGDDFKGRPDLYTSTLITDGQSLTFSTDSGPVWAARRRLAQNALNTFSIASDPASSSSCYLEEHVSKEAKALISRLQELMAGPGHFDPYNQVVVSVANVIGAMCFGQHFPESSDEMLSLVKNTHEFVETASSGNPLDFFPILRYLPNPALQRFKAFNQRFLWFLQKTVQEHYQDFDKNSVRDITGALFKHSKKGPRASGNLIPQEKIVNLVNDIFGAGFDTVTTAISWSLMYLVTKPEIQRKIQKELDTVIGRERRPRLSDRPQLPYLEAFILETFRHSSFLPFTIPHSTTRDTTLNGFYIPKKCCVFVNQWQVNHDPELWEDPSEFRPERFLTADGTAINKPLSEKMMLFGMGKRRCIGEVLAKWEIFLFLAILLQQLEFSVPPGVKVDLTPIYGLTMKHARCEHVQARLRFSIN
Description: CYP450 inhibition, CYP1A2. The conditions noted are these: for inhibition of CYP1A2: 10 µM, probe substrate Ethoxy-resorufin, replicate measurements.

Series [6] can be described thus: Microsomal stability, rat. The following applies: for CLint in vivo: scaled up using PBSF. Here is the method: as §1, §2
For series [7], the target named is T4, CYP3A4 (Homo sapiens, UniProt P08684).
T4 construct: purchased Cypex Ltd (Bactosomes)
T4 sequence (P08684 whole entry): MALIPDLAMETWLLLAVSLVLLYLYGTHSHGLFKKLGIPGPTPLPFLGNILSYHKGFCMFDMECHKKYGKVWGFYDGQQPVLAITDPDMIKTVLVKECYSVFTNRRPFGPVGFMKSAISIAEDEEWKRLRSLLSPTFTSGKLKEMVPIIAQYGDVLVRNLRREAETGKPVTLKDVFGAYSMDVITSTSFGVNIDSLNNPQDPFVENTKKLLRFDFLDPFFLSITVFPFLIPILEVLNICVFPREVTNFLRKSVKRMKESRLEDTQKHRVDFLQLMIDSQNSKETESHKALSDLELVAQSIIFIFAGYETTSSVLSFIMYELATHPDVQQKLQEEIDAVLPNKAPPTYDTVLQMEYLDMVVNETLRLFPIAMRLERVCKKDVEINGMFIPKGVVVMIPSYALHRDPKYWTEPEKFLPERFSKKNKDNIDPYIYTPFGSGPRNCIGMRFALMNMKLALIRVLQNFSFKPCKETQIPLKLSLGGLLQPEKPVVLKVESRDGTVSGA
Description: CYP450 inhibition, CYP3A4.

[8] abbreviates: mouse microsomes, 20, 4, 0.8 µM.
[9] abbreviates: human microsomes, 20, 4, 0.8 µM.
[10] abbreviates: 10 µM, probe substrate Midazolam, replicate measurements.
Where [11] appears, read: mouse microsomes, 0.8 µM, independent replicate to Table 4.
Where [12] appears, read: mouse microsomes, 4 µM, independent replicate to Table 4.
[13] abbreviates: mouse microsomes, 20 µM, independent replicate to Table 4.
The mark [14] stands for this setting: human microsomes, 0.8 µM, independent replicate to Table 4.
The mark [15] stands for this setting: human microsomes, 4 µM, independent replicate to Table 4.
Setting [16] is: human microsomes, 20 µM, independent replicate to Table 4.
[17] abbreviates: rat microsomes, 0.8 µM, independent replicate to Table 4.
The mark [18] stands for this setting: rat microsomes, 4 µM, independent replicate to Table 4.
Setting [19] is: rat microsomes, 20 µM, independent replicate to Table 4.

“And” between values parts separate entries of the source, which are not always exact repeats. Equal values may be shown once.

T2 sequence (P33261 whole entry): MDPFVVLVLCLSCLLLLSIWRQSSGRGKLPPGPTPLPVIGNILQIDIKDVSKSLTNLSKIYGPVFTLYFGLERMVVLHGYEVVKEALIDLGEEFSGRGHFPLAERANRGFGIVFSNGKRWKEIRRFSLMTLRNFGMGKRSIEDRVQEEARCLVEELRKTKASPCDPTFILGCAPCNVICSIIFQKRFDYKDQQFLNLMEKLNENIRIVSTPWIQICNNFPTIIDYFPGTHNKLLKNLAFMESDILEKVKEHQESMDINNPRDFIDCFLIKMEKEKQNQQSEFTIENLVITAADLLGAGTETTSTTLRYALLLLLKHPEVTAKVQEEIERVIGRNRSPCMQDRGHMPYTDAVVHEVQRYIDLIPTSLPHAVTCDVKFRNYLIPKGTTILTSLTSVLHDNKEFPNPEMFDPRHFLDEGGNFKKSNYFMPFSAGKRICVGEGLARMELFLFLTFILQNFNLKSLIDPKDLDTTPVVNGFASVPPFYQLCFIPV
T1 sequence (P10635 whole entry): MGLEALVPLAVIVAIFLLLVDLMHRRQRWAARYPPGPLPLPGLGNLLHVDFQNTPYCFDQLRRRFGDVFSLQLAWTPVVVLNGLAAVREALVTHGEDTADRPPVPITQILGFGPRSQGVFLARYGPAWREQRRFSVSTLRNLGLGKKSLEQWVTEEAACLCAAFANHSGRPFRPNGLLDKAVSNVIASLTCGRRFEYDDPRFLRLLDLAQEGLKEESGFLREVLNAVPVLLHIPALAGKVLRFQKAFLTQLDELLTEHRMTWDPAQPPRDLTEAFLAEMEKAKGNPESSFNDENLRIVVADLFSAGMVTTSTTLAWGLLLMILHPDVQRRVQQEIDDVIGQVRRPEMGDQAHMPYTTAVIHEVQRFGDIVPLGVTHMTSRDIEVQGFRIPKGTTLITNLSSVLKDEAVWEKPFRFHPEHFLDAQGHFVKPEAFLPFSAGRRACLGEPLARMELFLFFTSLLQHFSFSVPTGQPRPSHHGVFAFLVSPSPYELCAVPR

As to `N#Cc1cc(NC(=O)C2c3ccccc3C(=O)N(CC(F)(F)F)C2c2cn[nH]c2)ccc1F` (racemic) [(r)-SJ311], the CLint in vitro in series [1] (setting [8]) is given as below 7 µl/min/mg protein; in series [4] (setting [9]), below 7 µl/min/mg protein; in series [6] (rat microsomes, 20, 4, 0.8 µM), below 7 µl/min/mg protein. The CLint in vivo in series [1] (setting [8]) was below 13.5 mL/min/kg; in series [4] (setting [9]) it was below 5.2 mL/min/kg; in series [6] (rat microsomes, 20, 4, 0.8 µM), below 11.7 mL/min/kg. In addition, the “inhibition of CYP2D6” value in series [2] worked out at 11%. Moreover, in series [3], the “inhibition of CYP2C19” value was 12%. In series [5], the “inhibition of CYP1A2” value was 5% and 0.5%. Moreover, in series [7] (setting [10]), the “inhibition of CYP3A4” value was 54% and 52%.
`N#Cc1cc(NC(=O)C2c3ccccc3C(=O)N(CC(F)(F)F)C2c2cccnc2)ccc1F` (racemic) [(r)-SJ733]: the CLint in vitro in series [1] (setting [11]) was 9.1 ± 0.5 µl/min/mg protein; in series [1] (setting [12]), 10 ± 0.5 µl/min/mg protein; in series [1] (setting [13]) it was below 7 µl/min/mg protein; in series [4] (setting [14]) it was 12.7 ± 0.3 µl/min/mg protein; in series [4] (setting [15]) it was 11.5 ± 0.3 µl/min/mg protein; in series [4] (setting [16]), below 7 µl/min/mg protein. The CLint in vitro in series [6] (setting [17]), in series [6] (setting [18]) and in series [6] (setting [19]) was below 7 µl/min/mg protein in each case. For the same compound, the CLint in vivo is 21.4 ± 1.3 mL/min/kg in series [1] (mouse microsomes, 0.8 µM); 23.4 ± 1.1 mL/min/kg in series [1] (mouse microsomes, 4 µM); below 13.5 mL/min/kg in series [1] (mouse microsomes, 20 µM); 11.5 ± 0.3 mL/min/kg in series [4] (human microsomes, 0.8 µM); 10.3 ± 1.2 mL/min/kg in series [4] (human microsomes, 4 µM); below 5.2 mL/min/kg in series [4] (human microsomes, 20 µM). Besides, the CLint in vivo was below 11.7 mL/min/kg in series [6] (rat microsomes, 0.8 µM); below 11.7 mL/min/kg in series [6] (rat microsomes, 4 µM); below 11.7 mL/min/kg in series [6] (rat microsomes, 20 µM). Moreover, the “inhibition of CYP2D6” value in series [2] was 7% and 9%. In addition, the “inhibition of CYP2C19” value in series [3] is 5, 5%. Besides, in series [5], the “inhibition of CYP1A2” value was 10.8%. Besides, in series [7] (setting [10]), the “inhibition of CYP3A4” value is 42% and 33%.
On to `N#Cc1cc(NC(=O)[C@H]2c3ccccc3C(=O)N(CC(F)(F)F)[C@@H]2c2cccnc2)ccc1F` (racemic) [SJ733], for which the “CYP2D6 inhibition, in words” value in series [2] is given as “weak inhibitors”. Moreover, the “CYP2C19 inhibition, in words” value in series [3] is given as “weakly inhibited”. The “CYP1A2 inhibition, in words” value in series [5] is reported as “weak inhibitors”. The “CYP3A4 inhibition, in words” value in series [7] is “moderate inhibitors”.
On to `N#Cc1cc(NC(=O)[C@H]2c3ccccc3C(=O)N(CC(F)(F)F)[C@@H]2c2cn[nH]c2)ccc1F` [(+)-SJ311], for which the CLint in series [1] (mouse microsomes, 0.8 µM) is given as below 7 µl/min/mg protein; in series [4] (human microsomes, 0.8 µM), below 7 µl/min/mg protein; in series [6] (rat microsomes, 0.8 µM), below 7 µl/min/mg protein. Besides, the t1/2 was above 4 h in series [1] (mouse microsomes, 0.8 µM); above 4 h in series [4] (human microsomes, 0.8 µM); above 4 h in series [6] (rat microsomes, 0.8 µM).
Turning to `N#Cc1cc(NC(=O)[C@H]2c3ccccc3C(=O)N(CC(F)(F)F)[C@@H]2c2cccnc2)ccc1F` [(+)-SJ733], the CLint in series [1] (mouse microsomes, 0.8 µM) was 35.4 ± 2.1 µl/min/mg protein; in series [4] (human microsomes, 0.8 µM), 45.5 ± 4.0 µl/min/mg protein; in series [6] (rat microsomes, 0.8 µM) it was below 7 µl/min/mg protein. The t1/2 in series [1] (mouse microsomes, 0.8 µM) was 0.7 ± 0.1 h; in series [4] (human microsomes, 0.8 µM), 0.5 ± 0.1 h; in series [6] (rat microsomes, 0.8 µM), above 4 h. For the same compound, the CLint in vitro was found to be 33.9 ± 1.3 µl/min/mg protein in series [1] (setting [11]); 27.2 ± 1.3 µl/min/mg protein in series [1] (setting [12]); 15.9 ± 2.2 µl/min/mg protein in series [1] (setting [13]); 42.6 ± 0.7 µl/min/mg protein in series [4] (setting [14]); 34.5 ± 0.6 µl/min/mg protein in series [4] (setting [15]); 20.6 ± 0.5 µl/min/mg protein in series [4] (setting [16]). Moreover, the CLint in vitro in series [6] (setting [17]), in series [6] (setting [18]) and in series [6] (setting [19]) was below 7 µl/min/mg protein throughout. Further, the CLint in vivo in series [1] (mouse microsomes, 0.8 µM) worked out at 79.3 ± 3.0 mL/min/kg; in series [1] (mouse microsomes, 4 µM), 63.8 ± 2.9 mL/min/kg; in series [1] (mouse microsomes, 20 µM), 37.3 ± 5.3 mL/min/kg; in series [4] (human microsomes, 0.8 µM), 38.4 ± 0.7 mL/min/kg; in series [4] (human microsomes, 4 µM) it was 31.0 ± 0.5 mL/min/kg; in series [4] (human microsomes, 20 µM) it was 18.5 ± 0.4 mL/min/kg. Moreover, the CLint in vivo in series [6] (rat microsomes, 0.8 µM) is below 11.7 mL/min/kg; in series [6] (rat microsomes, 4 µM) it was below 11.7 mL/min/kg; in series [6] (rat microsomes, 20 µM) it was below 11.7 mL/min/kg.
In the case of `N#Cc1cc(NC(=O)[C@H]2c3ccccc3C(=O)N(CC(F)(F)F)[C@@H]2c2cn[nH]c2)ccc1F` [SJ311], the “CYP2D6 inhibition, in words” value in series [2] was “weak inhibitors”. In addition, the “CYP2C19 inhibition, in words” value in series [3] was “weak inhibitor”. In addition, the “CYP1A2 inhibition, in words” value in series [5] was “weak inhibitors”. Also, the “CYP3A4 inhibition, in words” value in series [7] was “moderate inhibitors”. For the same compound, the inhibition at 10 µM in series [7] (human, pH 7.4, 10 µM, probe substrate Midazolam, replicate measurements) stood at 53%.
